For seven compounds, IC50 results are on record in ChEMBL document CHEMBL1133047, “Synthesis of neurotensin(9-13) analogues exhibiting enhanced human neurotensin receptor binding affinities” (Bioorg Med Chem Lett, 2000).

In this assay the target is Neurotensin receptor type 1 (Homo sapiens, UniProt P30989). The experiment in a line: Compound was evaluated for the binding affinity against human neurotensin receptor (hNTR)-1 expressed in CHO cells. It is filed as cell-based.

For orientation: IC50 means the concentration at which inhibition is half-maximal. A lower IC50 goes with inhibition by little substance.

Where a SMILES comes first, the peptide text is derived from it. The star is where a group is joined. X1 = [N-]=[N+]=N[C@@H](CCCNCCN1CCNCC1)C(=O)*; X5 = [N-]=[N+]=N[C@@H](CCCNCCNCCN)C(=O)*; X2 = [N-]=[N+]=N[C@@H](CCCNCCCCN)C(=O)*; X4 = [N-]=[N+]=N[C@@H](CCCNCCCN)C(=O)*; X3 = [N-]=[N+]=N[C@@H](CCCNCCN)C(=O)*

Neurotensin receptor type 1, sequence (P30989 whole entry): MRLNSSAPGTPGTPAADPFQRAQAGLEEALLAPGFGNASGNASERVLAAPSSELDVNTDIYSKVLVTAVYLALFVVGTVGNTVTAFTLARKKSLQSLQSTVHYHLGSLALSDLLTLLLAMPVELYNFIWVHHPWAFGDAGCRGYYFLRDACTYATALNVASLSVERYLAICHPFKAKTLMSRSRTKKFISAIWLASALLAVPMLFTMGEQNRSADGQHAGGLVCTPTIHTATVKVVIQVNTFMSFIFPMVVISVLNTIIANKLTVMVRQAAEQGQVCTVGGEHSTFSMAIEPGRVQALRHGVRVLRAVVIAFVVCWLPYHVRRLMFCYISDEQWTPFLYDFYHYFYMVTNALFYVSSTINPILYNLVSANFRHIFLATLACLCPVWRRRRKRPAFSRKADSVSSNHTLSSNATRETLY

As to `CC[C@H](C)[C@H](NC(=O)[C@H](Cc1ccc(O)cc1)NC(=O)[C@@H]1CCCN1C(=O)[C@H](CCCN)NC(=O)[C@@H](N)CCCN)C(=O)N[C@@H](CC(C)C)C(=O)O`, the IC50 was found to be 1.3 nM. In other words, the single-digit nanomolar range.
Compound `CC[C@H](C)[C@H](NC(=O)[C@H](Cc1ccc(O)cc1)NC(=O)[C@@H]1CCCN1C(=O)[C@@H](N)CCCNC(=N)N)C(=O)N[C@@H](CC(C)C)C(=O)O` registered a 50% inhibitory concentration (IC50) of 19 nM.
In the case of `CC[C@H](C)[C@H](NC(=O)[C@H](Cc1ccc(O)cc1)NC(=O)[C@@H]1CCCN1C(=O)[C@H](CCCNCCN1CCNCC1)N=[N+]=[N-])C(=O)N[C@@H](CC(C)C)C(=O)O` (X1-PYIL-OH) it was 28 nM; in that of `CC[C@H](C)[C@H](NC(=O)[C@H](Cc1ccc(O)cc1)NC(=O)[C@@H]1CCCN1C(=O)[C@H](CCCNCCCCN)N=[N+]=[N-])C(=O)N[C@@H](CC(C)C)C(=O)O` (X2-PYIL-OH), 9.3 nM.
Regarding `CC[C@H](C)[C@H](NC(=O)[C@H](Cc1ccc(O)cc1)NC(=O)[C@@H]1CCCN1C(=O)[C@H](CCCNCCN)N=[N+]=[N-])C(=O)N[C@@H](CC(C)C)C(=O)O` (X3-PYIL-OH), the IC50 stood at 14.7 nM.
In the case of `CC[C@H](C)[C@H](NC(=O)[C@H](Cc1ccc(O)cc1)NC(=O)[C@@H]1CCCN1C(=O)[C@H](CCCNCCCN)N=[N+]=[N-])C(=O)N[C@@H](CC(C)C)C(=O)O` (X4-PYIL-OH) it was 3.9 nM; in that of `CC[C@H](C)[C@H](NC(=O)[C@H](Cc1ccc(O)cc1)NC(=O)[C@@H]1CCCN1C(=O)[C@H](CCCNCCNCCN)N=[N+]=[N-])C(=O)N[C@@H](CC(C)C)C(=O)O` (X5-PYIL-OH), 8.8 nM.
